# Data taken from PubChem BioAssay (NCI).
#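 Growth conditions: 96-well plates. Treatment: test compound, 48 hours, 5 concentrations. Analysis: linear interpolation between bracketing concentrations; unreached endpoints set to highest concentration. GI50 = concentration required for 50% inhibition of growth. TGI is the concentration that stops growth completely.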
# Key:
# Assay in all cases: NCI anticancer screen, dose series, 48 h
# U251 CNS = system: U251 CNS
# SNB-75 CNS = system: SNB-75 CNS
# MCF7 breast = system: MCF7 breast
# M14 melanoma = system: M14 melanoma
# SF-539 CNS = system: SF-539 CNS
# RXF 393 renal = system: RXF 393 renal
# LOX IMVI melanoma = system: LOX IMVI melanoma
# HCC-2998 colon = system: HCC-2998 colon
# SR leukemia = system: SR leukemia
# DU-145 prostate = system: DU-145 prostate
# NCI-H460 lung = system: NCI-H460 lung
# MDA-MB-231 breast = system: MDA-MB-231 breast
# KM12 colon = system: KM12 colon
# IGROV1 ovarian = system: IGROV1 ovarian
# HCT-15 colon = system: HCT-15 colon
# HCT-116 colon = system: HCT-116 colon
# SK-MEL-28 melanoma = system: SK-MEL-28 melanoma
# SNB-19 CNS = system: SNB-19 CNS
# HS 578T breast = system: HS 578T breast
# UO-31 renal = system: UO-31 renal
# MOLT-4 leukemia = system: MOLT-4 leukemia
# CCRF-CEM leukemia = system: CCRF-CEM leukemia
# ACHN renal = system: ACHN renal
# SN12C renal = system: SN12C renal
# NCI/ADR-RES ovarian = system: NCI/ADR-RES ovarian
# SW-620 colon = system: SW-620 colon
# SF-268 CNS = system: SF-268 CNS
# HL-60(TB) leukemia = system: HL-60(TB) leukemia
# BT-549 breast = system: BT-549 breast
# HT29 colon = system: HT29 colon
# OVCAR-5 ovarian = system: OVCAR-5 ovarian
# COLO 205 colon = system: COLO 205 colon
# 786-0 renal = system: 786-0 renal
# SK-MEL-2 melanoma = system: SK-MEL-2 melanoma
# T-47D breast = system: T-47D breast
# OVCAR-4 ovarian = system: OVCAR-4 ovarian
# SF-295 CNS = system: SF-295 CNS
# NCI-H23 lung = system: NCI-H23 lung
# PC-3 prostate = system: PC-3 prostate
# MALME-3M melanoma = system: MALME-3M melanoma
# UACC-62 melanoma = system: UACC-62 melanoma
# SK-MEL-5 melanoma = system: SK-MEL-5 melanoma
# OVCAR-3 ovarian = system: OVCAR-3 ovarian
# OVCAR-8 ovarian = system: OVCAR-8 ovarian
# A549 NSCLC = system: A549 NSCLC
# HOP-92 NSCLC = system: HOP-92 NSCLC
# NCI-H226 lung = system: NCI-H226 lung
# TK-10 renal = system: TK-10 renal
# UACC-257 melanoma = system: UACC-257 melanoma
# A498 renal = system: A498 renal
# MDA-MB-435 = system: MDA-MB-435
# HOP-62 NSCLC = system: HOP-62 NSCLC
# RPMI-8226 leukemia = system: RPMI-8226 leukemia
# EKVX NSCLC = system: EKVX NSCLC
# SK-OV-3 ovarian = system: SK-OV-3 ovarian
# NCI-H522 lung = system: NCI-H522 lung
smiles,measurement,setting,value
O=C(/C=C/c1cccc(Oc2ccc(Cl)cc2)c1)c1ccccc1,GI50,U251 CNS,21.1 µM
same,TGI,U251 CNS,42 µM
same,GI50,SNB-75 CNS,124 µM
same,TGI,SNB-75 CNS,269 µM
same,GI50,MCF7 breast,26.9 µM
same,TGI,MCF7 breast,118 µM
same,GI50,M14 melanoma,53.1 µM
same,TGI,M14 melanoma,241 µM
same,GI50,SF-539 CNS,21.3 µM
same,TGI,SF-539 CNS,53.2 µM
same,GI50,RXF 393 renal,44.2 µM
same,TGI,RXF 393 renal,152 µM
same,GI50,LOX IMVI melanoma,16.9 µM
same,TGI,LOX IMVI melanoma,33 µM
same,GI50,HCC-2998 colon,117 µM
same,TGI,HCC-2998 colon,255 µM
same,GI50,SR leukemia,22.9 µM
same,TGI,SR leukemia,78.7 µM
same,GI50,DU-145 prostate,69.7 µM
same,TGI,DU-145 prostate,207 µM
same,GI50,NCI-H460 lung,60.1 µM
same,TGI,NCI-H460 lung,208 µM
same,GI50,MDA-MB-231 breast,29.1 µM
same,TGI,MDA-MB-231 breast,89 µM
same,GI50,KM12 colon,34.9 µM
same,TGI,KM12 colon,125 µM
same,GI50,IGROV1 ovarian,28.1 µM
same,TGI,IGROV1 ovarian,101 µM
same,GI50,HCT-15 colon,18.7 µM
same,TGI,HCT-15 colon,44.6 µM
same,GI50,HCT-116 colon,20.6 µM
same,TGI,HCT-116 colon,41.7 µM
same,GI50,SK-MEL-28 melanoma,29.7 µM
same,TGI,SK-MEL-28 melanoma,107 µM
same,GI50,SNB-19 CNS,35.3 µM
same,TGI,SNB-19 CNS,111 µM
same,GI50,HS 578T breast,109 µM
same,TGI,HS 578T breast,628 µM
same,GI50,UO-31 renal,17.3 µM
same,TGI,UO-31 renal,34.1 µM
same,GI50,MOLT-4 leukemia,30.8 µM
same,GI50,CCRF-CEM leukemia,31.6 µM
same,TGI,CCRF-CEM leukemia,384 µM
same,GI50,ACHN renal,16.9 µM
same,TGI,ACHN renal,31.7 µM
same,GI50,SN12C renal,28.4 µM
same,TGI,SN12C renal,78.4 µM
same,GI50,NCI/ADR-RES ovarian,37.1 µM
same,TGI,NCI/ADR-RES ovarian,232 µM
same,GI50,SW-620 colon,22.6 µM
same,TGI,SW-620 colon,49.4 µM
same,GI50,SF-268 CNS,75.5 µM
same,TGI,SF-268 CNS,209 µM
same,GI50,HL-60(TB) leukemia,23.4 µM
same,TGI,HL-60(TB) leukemia,58.4 µM
same,GI50,BT-549 breast,31.6 µM
same,TGI,BT-549 breast,97.5 µM
same,GI50,HT29 colon,26.2 µM
same,TGI,HT29 colon,61.6 µM
same,GI50,OVCAR-5 ovarian,26.3 µM
same,TGI,OVCAR-5 ovarian,83.6 µM
same,GI50,COLO 205 colon,63.4 µM
same,TGI,COLO 205 colon,283 µM
same,GI50,786-0 renal,19.9 µM
same,TGI,786-0 renal,43.6 µM
same,GI50,SK-MEL-2 melanoma,148 µM
same,TGI,SK-MEL-2 melanoma,336 µM
same,GI50,T-47D breast,46.3 µM
same,TGI,T-47D breast,235 µM
same,GI50,OVCAR-4 ovarian,75 µM
same,TGI,OVCAR-4 ovarian,234 µM
same,GI50,SF-295 CNS,60 µM
same,TGI,SF-295 CNS,196 µM
same,GI50,NCI-H23 lung,80.7 µM
same,TGI,NCI-H23 lung,266 µM
same,GI50,PC-3 prostate,19.7 µM
same,TGI,PC-3 prostate,37.8 µM
same,GI50,MALME-3M melanoma,38.3 µM
same,TGI,MALME-3M melanoma,175 µM
same,GI50,UACC-62 melanoma,26.8 µM
same,TGI,UACC-62 melanoma,77 µM
same,GI50,SK-MEL-5 melanoma,36 µM
same,TGI,SK-MEL-5 melanoma,127 µM
same,GI50,OVCAR-3 ovarian,21.1 µM
same,TGI,OVCAR-3 ovarian,42.8 µM
same,GI50,OVCAR-8 ovarian,26.9 µM
same,TGI,OVCAR-8 ovarian,66.9 µM
same,GI50,A549 NSCLC,138 µM
same,TGI,A549 NSCLC,298 µM
same,GI50,HOP-92 NSCLC,21.8 µM
same,TGI,HOP-92 NSCLC,50.1 µM
same,GI50,NCI-H226 lung,122 µM
same,TGI,NCI-H226 lung,273 µM
same,GI50,TK-10 renal,192 µM
same,TGI,TK-10 renal,342 µM
same,GI50,UACC-257 melanoma,185 µM
same,TGI,UACC-257 melanoma,344 µM
same,GI50,A498 renal,163 µM
same,TGI,A498 renal,312 µM
same,GI50,MDA-MB-435,21.9 µM
same,TGI,MDA-MB-435,50.9 µM
same,GI50,HOP-62 NSCLC,113 µM
same,TGI,HOP-62 NSCLC,272 µM
same,GI50,RPMI-8226 leukemia,25.3 µM
same,TGI,RPMI-8226 leukemia,61 µM
same,GI50,EKVX NSCLC,104 µM
same,TGI,EKVX NSCLC,261 µM
same,GI50,SK-OV-3 ovarian,195 µM
same,TGI,SK-OV-3 ovarian,381 µM
same,GI50,NCI-H522 lung,67.1 µM
same,TGI,NCI-H522 lung,246 µM
